# Experimental data from article PMC6009956, “Design, synthesis and biological activity of N^4-phenylsubstituted-7H-pyrrolo[2,3-d]pyrimidin-4-amines as dual inhibitors of aurora kinase A and epidermal growth factor receptor kinase” (Journal of Enzyme Inhibition and Medicinal Chemistry, 2017).
# Where two headings read alike, the source gives them in different places.
# How the values were obtained:
# EGFR = EGFR (Homo sapiens, UniProt P00533); experiment: ADP-Glo kinase assay, EGFR; assay type: biochemical; set-up: purchased BPS Bioscience (assay run externally by the vendor)
# Chain of EGFR (P00533 25-1210): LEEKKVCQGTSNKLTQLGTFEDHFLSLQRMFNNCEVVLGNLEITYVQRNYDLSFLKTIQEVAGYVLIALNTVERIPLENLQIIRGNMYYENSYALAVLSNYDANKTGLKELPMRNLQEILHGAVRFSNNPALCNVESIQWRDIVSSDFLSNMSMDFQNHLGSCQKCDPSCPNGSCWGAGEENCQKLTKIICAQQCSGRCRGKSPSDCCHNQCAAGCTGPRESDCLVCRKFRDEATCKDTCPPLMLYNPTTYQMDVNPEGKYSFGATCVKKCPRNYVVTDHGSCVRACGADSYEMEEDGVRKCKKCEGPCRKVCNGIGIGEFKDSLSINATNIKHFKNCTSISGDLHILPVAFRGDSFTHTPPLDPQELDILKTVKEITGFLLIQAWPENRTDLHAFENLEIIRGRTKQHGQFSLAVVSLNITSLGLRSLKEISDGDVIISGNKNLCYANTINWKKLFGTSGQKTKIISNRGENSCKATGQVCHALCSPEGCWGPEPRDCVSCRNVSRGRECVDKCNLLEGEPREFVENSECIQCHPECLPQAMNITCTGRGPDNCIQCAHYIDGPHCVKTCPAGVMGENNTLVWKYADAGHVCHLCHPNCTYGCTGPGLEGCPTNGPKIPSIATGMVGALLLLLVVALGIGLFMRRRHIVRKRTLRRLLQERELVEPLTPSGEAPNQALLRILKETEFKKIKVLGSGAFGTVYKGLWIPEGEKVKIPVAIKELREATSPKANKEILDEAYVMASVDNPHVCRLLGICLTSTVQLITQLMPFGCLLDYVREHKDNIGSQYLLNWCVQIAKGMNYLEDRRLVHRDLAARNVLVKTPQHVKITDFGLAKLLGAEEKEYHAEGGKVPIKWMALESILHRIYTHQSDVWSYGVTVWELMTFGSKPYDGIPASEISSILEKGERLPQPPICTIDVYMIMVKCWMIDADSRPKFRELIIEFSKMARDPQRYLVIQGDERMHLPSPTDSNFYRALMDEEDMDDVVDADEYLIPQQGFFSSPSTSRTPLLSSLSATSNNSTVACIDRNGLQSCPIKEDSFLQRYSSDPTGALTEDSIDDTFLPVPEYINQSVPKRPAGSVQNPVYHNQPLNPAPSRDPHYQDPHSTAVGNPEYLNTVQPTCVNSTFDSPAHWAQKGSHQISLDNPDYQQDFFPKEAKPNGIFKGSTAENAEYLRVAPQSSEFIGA
# aurora A kinase (AURKA) = biological target: T1, aurora A kinase (AURKA) (Homo sapiens, UniProt O14965); experiment: ADP-Glo kinase assay, Aurora A; assay type: biochemical
# T1 construct: purchased BPS Bioscience (assay run externally by the vendor)
# T1 sequence (O14965 1-403): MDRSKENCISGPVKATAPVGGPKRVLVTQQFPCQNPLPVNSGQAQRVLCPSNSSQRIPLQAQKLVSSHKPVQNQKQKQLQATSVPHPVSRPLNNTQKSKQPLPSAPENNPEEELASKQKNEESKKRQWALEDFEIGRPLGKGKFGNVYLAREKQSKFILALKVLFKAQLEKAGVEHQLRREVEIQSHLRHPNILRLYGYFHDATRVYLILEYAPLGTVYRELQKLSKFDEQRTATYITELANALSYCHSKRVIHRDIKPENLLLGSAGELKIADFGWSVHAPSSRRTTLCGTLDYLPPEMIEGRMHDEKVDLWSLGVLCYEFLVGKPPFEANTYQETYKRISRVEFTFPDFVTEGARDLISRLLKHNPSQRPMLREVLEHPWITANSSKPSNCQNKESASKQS
# [1] = 10 µM ATP, triplicate, read-out: EGFR IC50 ± SD
# [2] = 10 µM ATP/0.2 mg/ml Poly-Glu-Tyr, read-out: EGFR IC50 (dose-response curve, supplement)
# [3] = 10 µM ATP, triplicate, read-out: AURKA IC50 ± SD
# [4] = 10 µM ATP/0.2 mg/ml Kemptide, read-out: Aurora A IC50 (dose-response curve, supplement)
smiles,measurement,setting,value
"c1ccc(Nc2ncnc3[nH]ccc23)cc1 [Compound 1, N^4-phenyl-7H-pyrrolo[2,3-d]pyrimidine-4-amine]",IC50,EGFR; [1],0.254 ± 0.026 µM
same,IC50,EGFR; [2],0.253 µM
same,EGFR % Activity Set1,EGFR; Log[nM] 0,103%
same,EGFR % Activity Set2,EGFR; Log[nM] 0,98%
same,EGFR % Activity Set3,EGFR; Log[nM] 0,103%
same,EGFR % Activity Set1,EGFR; Log[nM] 1.0,101%
same,EGFR % Activity Set2,EGFR; Log[nM] 1.0,110%
same,EGFR % Activity Set3,EGFR; Log[nM] 1.0,106%
same,EGFR % Activity Set1,EGFR; Log[nM] 1.5,92%
same,EGFR % Activity Set2,EGFR; Log[nM] 1.5,91%
same,EGFR % Activity Set3,EGFR; Log[nM] 1.5,94%
same,EGFR % Activity Set1,EGFR; Log[nM] 2.0,66%
same,EGFR % Activity Set2,EGFR; Log[nM] 2.0,71%
same,EGFR % Activity Set3,EGFR; Log[nM] 2.0,76%
same,EGFR % Activity Set1,EGFR; Log[nM] 2.5,39%
same,EGFR % Activity Set2,EGFR; Log[nM] 2.5,42%
same,EGFR % Activity Set3,EGFR; Log[nM] 2.5,40%
same,EGFR % Activity Set1,EGFR; Log[nM] 3.0,24%
same,EGFR % Activity Set2,EGFR; Log[nM] 3.0,22%
same,EGFR % Activity Set3,EGFR; Log[nM] 3.0,22%
same,EGFR % Activity Set1,EGFR; Log[nM] 3.5,9%
same,EGFR % Activity Set2,EGFR; Log[nM] 3.5,9%
same,EGFR % Activity Set3,EGFR; Log[nM] 3.5,9%
same,EGFR % Activity Set1,EGFR; Log[nM] 4.0,4%
same,EGFR % Activity Set2,EGFR; Log[nM] 4.0,5%
same,EGFR % Activity Set3,EGFR; Log[nM] 4.0,5%
same,EGFR % Activity Set1,EGFR; Log[nM] 4.5,2%
same,EGFR % Activity Set2,EGFR; Log[nM] 4.5,2%
same,EGFR % Activity Set3,EGFR; Log[nM] 4.5,2%
same,EGFR % Activity Set1,EGFR; Log[nM] 5.0,1%
same,EGFR % Activity Set2,EGFR; Log[nM] 5.0,1%
same,EGFR % Activity Set3,EGFR; Log[nM] 5.0,1%
same,IC50,aurora A kinase (AURKA); [3],5.58 ± 0.66 µM
same,IC50,aurora A kinase (AURKA); [4],5.6 µM
same,Aurora A % Activity Set1,aurora A kinase (AURKA); Log[nM] 0,91%
same,Aurora A % Activity Set2,aurora A kinase (AURKA); Log[nM] 0,91%
same,Aurora A % Activity Set3,aurora A kinase (AURKA); Log[nM] 0,92%
same,Aurora A % Activity Set1,aurora A kinase (AURKA); Log[nM] 1.0,87%
same,Aurora A % Activity Set2,aurora A kinase (AURKA); Log[nM] 1.0,90%
same,Aurora A % Activity Set3,aurora A kinase (AURKA); Log[nM] 1.0,91%
same,Aurora A % Activity Set1,aurora A kinase (AURKA); Log[nM] 1.5,93%
same,Aurora A % Activity Set2,aurora A kinase (AURKA); Log[nM] 1.5,98%
same,Aurora A % Activity Set3,aurora A kinase (AURKA); Log[nM] 1.5,100%
same,Aurora A % Activity Set1,aurora A kinase (AURKA); Log[nM] 2.0,96%
same,Aurora A % Activity Set2,aurora A kinase (AURKA); Log[nM] 2.0,97%
same,Aurora A % Activity Set3,aurora A kinase (AURKA); Log[nM] 2.0,100%
same,Aurora A % Activity Set1,aurora A kinase (AURKA); Log[nM] 2.5,99%
same,Aurora A % Activity Set2,aurora A kinase (AURKA); Log[nM] 2.5,103%
same,Aurora A % Activity Set3,aurora A kinase (AURKA); Log[nM] 2.5,104%
same,Aurora A % Activity Set1,aurora A kinase (AURKA); Log[nM] 3.0,86%
same,Aurora A % Activity Set2,aurora A kinase (AURKA); Log[nM] 3.0,90%
same,Aurora A % Activity Set3,aurora A kinase (AURKA); Log[nM] 3.0,93%
same,Aurora A % Activity Set1,aurora A kinase (AURKA); Log[nM] 3.5,63%
same,Aurora A % Activity Set2,aurora A kinase (AURKA); Log[nM] 3.5,70%
same,Aurora A % Activity Set3,aurora A kinase (AURKA); Log[nM] 3.5,70%
same,Aurora A % Activity Set1,aurora A kinase (AURKA); Log[nM] 4.0,28%
same,Aurora A % Activity Set2,aurora A kinase (AURKA); Log[nM] 4.0,31%
same,Aurora A % Activity Set3,aurora A kinase (AURKA); Log[nM] 4.0,32%
same,Aurora A % Activity Set1,aurora A kinase (AURKA); Log[nM] 4.5,11%
same,Aurora A % Activity Set2,aurora A kinase (AURKA); Log[nM] 4.5,12%
same,Aurora A % Activity Set3,aurora A kinase (AURKA); Log[nM] 4.5,13%
same,Aurora A % Activity Set1,aurora A kinase (AURKA); Log[nM] 5.0,5%
same,Aurora A % Activity Set2,aurora A kinase (AURKA); Log[nM] 5.0,5%
same,Aurora A % Activity Set3,aurora A kinase (AURKA); Log[nM] 5.0,5%
"Cc1ccccc1Nc1ncnc2[nH]ccc12 [Compound 15, N^4-(2-methylphenyl)-7H-pyrrolo[2,3-d]pyrimidin-4-amine]",IC50,EGFR; [1],1.23 ± 0.201 µM
same,IC50,EGFR; [2],1.2 µM
same,EGFR % Activity Set1,EGFR; Log[nM] 0,97%
same,EGFR % Activity Set2,EGFR; Log[nM] 0,98%
same,EGFR % Activity Set3,EGFR; Log[nM] 0,121%
same,EGFR % Activity Set1,EGFR; Log[nM] 1.0,109%
same,EGFR % Activity Set2,EGFR; Log[nM] 1.0,101%
same,EGFR % Activity Set3,EGFR; Log[nM] 1.0,128%
same,EGFR % Activity Set1,EGFR; Log[nM] 1.5,113%
same,EGFR % Activity Set2,EGFR; Log[nM] 1.5,108%
same,EGFR % Activity Set3,EGFR; Log[nM] 1.5,122%
same,EGFR % Activity Set1,EGFR; Log[nM] 2.0,111%
same,EGFR % Activity Set2,EGFR; Log[nM] 2.0,102%
same,EGFR % Activity Set3,EGFR; Log[nM] 2.0,99%
same,EGFR % Activity Set1,EGFR; Log[nM] 2.5,77%
same,EGFR % Activity Set2,EGFR; Log[nM] 2.5,82%
same,EGFR % Activity Set3,EGFR; Log[nM] 2.5,84%
same,EGFR % Activity Set1,EGFR; Log[nM] 3.0,55%
same,EGFR % Activity Set2,EGFR; Log[nM] 3.0,59%
same,EGFR % Activity Set3,EGFR; Log[nM] 3.0,52%
same,EGFR % Activity Set1,EGFR; Log[nM] 3.5,20%
same,EGFR % Activity Set2,EGFR; Log[nM] 3.5,24%
same,EGFR % Activity Set3,EGFR; Log[nM] 3.5,23%
same,EGFR % Activity Set1,EGFR; Log[nM] 4.0,12%
same,EGFR % Activity Set2,EGFR; Log[nM] 4.0,12%
same,EGFR % Activity Set3,EGFR; Log[nM] 4.0,10%
same,EGFR % Activity Set1,EGFR; Log[nM] 4.5,4%
same,EGFR % Activity Set2,EGFR; Log[nM] 4.5,5%
same,EGFR % Activity Set3,EGFR; Log[nM] 4.5,4%
same,EGFR % Activity Set1,EGFR; Log[nM] 5.0,4%
same,EGFR % Activity Set2,EGFR; Log[nM] 5.0,3%
same,EGFR % Activity Set3,EGFR; Log[nM] 5.0,3%
same,IC50,aurora A kinase (AURKA); [3],8.56 ± 1.74 µM
same,IC50,aurora A kinase (AURKA); [4],8.5 µM
same,Aurora A % Activity Set1,aurora A kinase (AURKA); Log[nM] 0,95%
same,Aurora A % Activity Set2,aurora A kinase (AURKA); Log[nM] 0,97%
same,Aurora A % Activity Set3,aurora A kinase (AURKA); Log[nM] 0,102%
same,Aurora A % Activity Set1,aurora A kinase (AURKA); Log[nM] 1.0,102%
same,Aurora A % Activity Set2,aurora A kinase (AURKA); Log[nM] 1.0,103%
same,Aurora A % Activity Set3,aurora A kinase (AURKA); Log[nM] 1.0,102%
same,Aurora A % Activity Set1,aurora A kinase (AURKA); Log[nM] 1.5,105%
same,Aurora A % Activity Set2,aurora A kinase (AURKA); Log[nM] 1.5,105%
same,Aurora A % Activity Set3,aurora A kinase (AURKA); Log[nM] 1.5,107%
same,Aurora A % Activity Set1,aurora A kinase (AURKA); Log[nM] 2.0,98%
same,Aurora A % Activity Set2,aurora A kinase (AURKA); Log[nM] 2.0,107%
same,Aurora A % Activity Set3,aurora A kinase (AURKA); Log[nM] 2.0,109%
same,Aurora A % Activity Set1,aurora A kinase (AURKA); Log[nM] 2.5,103%
same,Aurora A % Activity Set2,aurora A kinase (AURKA); Log[nM] 2.5,103%
same,Aurora A % Activity Set3,aurora A kinase (AURKA); Log[nM] 2.5,107%
same,Aurora A % Activity Set1,aurora A kinase (AURKA); Log[nM] 3.0,92%
same,Aurora A % Activity Set2,aurora A kinase (AURKA); Log[nM] 3.0,102%
same,Aurora A % Activity Set3,aurora A kinase (AURKA); Log[nM] 3.0,98%
same,Aurora A % Activity Set1,aurora A kinase (AURKA); Log[nM] 3.5,66%
same,Aurora A % Activity Set2,aurora A kinase (AURKA); Log[nM] 3.5,73%
same,Aurora A % Activity Set3,aurora A kinase (AURKA); Log[nM] 3.5,70%
same,Aurora A % Activity Set1,aurora A kinase (AURKA); Log[nM] 4.0,44%
same,Aurora A % Activity Set2,aurora A kinase (AURKA); Log[nM] 4.0,48%
same,Aurora A % Activity Set3,aurora A kinase (AURKA); Log[nM] 4.0,48%
same,Aurora A % Activity Set1,aurora A kinase (AURKA); Log[nM] 4.5,18%
same,Aurora A % Activity Set2,aurora A kinase (AURKA); Log[nM] 4.5,18%
same,Aurora A % Activity Set3,aurora A kinase (AURKA); Log[nM] 4.5,19%
same,Aurora A % Activity Set1,aurora A kinase (AURKA); Log[nM] 5.0,11%
same,Aurora A % Activity Set2,aurora A kinase (AURKA); Log[nM] 5.0,11%
same,Aurora A % Activity Set3,aurora A kinase (AURKA); Log[nM] 5.0,11%
